Reference: ChEMBL document CHEMBL3988442, “University of Dundee, Small-Polar-MMV Screening Library” (2021)
Where “and” joins values, the source holds several entries; their conditions need not be identical. Equal entries are not always repeated.

Legend:
[1] = biological target: T1, Ubiquitin-activating enzyme e1, putative (Leishmania donovani (strain BPK282A1), UniProt E9BSI1); assay: Leishmania donovani Ubiquitin Activating Enzyme (LdE1); format: functional
T1 sequence (E9BSI1 whole entry): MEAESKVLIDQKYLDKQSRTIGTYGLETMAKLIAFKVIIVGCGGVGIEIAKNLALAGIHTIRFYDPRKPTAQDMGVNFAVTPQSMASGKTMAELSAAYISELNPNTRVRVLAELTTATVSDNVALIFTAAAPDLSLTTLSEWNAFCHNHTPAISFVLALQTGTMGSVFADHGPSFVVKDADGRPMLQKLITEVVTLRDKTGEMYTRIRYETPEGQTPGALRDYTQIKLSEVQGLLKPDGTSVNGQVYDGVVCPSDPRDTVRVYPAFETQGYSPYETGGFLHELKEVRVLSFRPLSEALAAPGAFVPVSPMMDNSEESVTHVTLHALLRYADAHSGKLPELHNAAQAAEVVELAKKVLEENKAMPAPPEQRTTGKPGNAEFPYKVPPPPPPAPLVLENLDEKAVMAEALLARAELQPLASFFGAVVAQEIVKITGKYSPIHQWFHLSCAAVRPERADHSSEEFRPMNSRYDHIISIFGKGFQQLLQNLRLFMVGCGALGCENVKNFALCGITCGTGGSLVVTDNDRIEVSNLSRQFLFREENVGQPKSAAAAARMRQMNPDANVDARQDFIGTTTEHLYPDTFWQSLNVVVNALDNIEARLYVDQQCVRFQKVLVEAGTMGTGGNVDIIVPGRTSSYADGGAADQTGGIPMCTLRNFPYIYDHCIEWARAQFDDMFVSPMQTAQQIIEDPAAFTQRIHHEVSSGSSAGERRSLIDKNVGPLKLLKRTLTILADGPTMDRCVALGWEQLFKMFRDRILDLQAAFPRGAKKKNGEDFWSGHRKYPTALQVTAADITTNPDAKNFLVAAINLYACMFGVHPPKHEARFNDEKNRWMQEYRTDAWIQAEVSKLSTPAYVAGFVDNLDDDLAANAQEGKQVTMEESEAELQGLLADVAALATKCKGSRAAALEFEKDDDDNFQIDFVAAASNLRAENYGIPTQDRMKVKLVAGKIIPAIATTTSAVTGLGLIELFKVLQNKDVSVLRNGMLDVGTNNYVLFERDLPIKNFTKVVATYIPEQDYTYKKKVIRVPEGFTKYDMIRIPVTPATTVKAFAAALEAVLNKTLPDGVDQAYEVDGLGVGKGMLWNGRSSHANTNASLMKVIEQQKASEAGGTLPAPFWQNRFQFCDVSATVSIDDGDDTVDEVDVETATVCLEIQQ

[2] = biological target: T2, Aspartate--tRNA(Asp/Asn) ligase (Mycobacterium tuberculosis (strain ATCC 25618 / H37Rv), UniProt P9WFW3); assay: Assay for Asp RNA synthetase-1 from Mycobacterium tuberculosis; format: functional
T2 sequence (P9WFW3 whole entry): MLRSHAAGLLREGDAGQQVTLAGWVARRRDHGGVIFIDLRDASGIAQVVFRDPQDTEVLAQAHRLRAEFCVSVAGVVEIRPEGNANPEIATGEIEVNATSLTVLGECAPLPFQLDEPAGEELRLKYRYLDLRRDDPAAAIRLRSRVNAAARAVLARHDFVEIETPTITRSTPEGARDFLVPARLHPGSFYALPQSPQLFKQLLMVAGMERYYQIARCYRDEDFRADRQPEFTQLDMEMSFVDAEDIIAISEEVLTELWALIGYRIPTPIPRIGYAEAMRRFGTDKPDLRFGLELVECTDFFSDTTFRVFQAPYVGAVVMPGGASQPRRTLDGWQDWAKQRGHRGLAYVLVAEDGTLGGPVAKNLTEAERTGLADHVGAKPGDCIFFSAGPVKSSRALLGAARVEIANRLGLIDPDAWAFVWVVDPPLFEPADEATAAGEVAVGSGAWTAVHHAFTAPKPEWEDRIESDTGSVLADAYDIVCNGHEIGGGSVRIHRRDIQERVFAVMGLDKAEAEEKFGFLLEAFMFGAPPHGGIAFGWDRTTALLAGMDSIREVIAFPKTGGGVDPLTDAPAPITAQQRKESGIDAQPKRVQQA

Histidine--tRNA ligase [3] = biological target: T3, Histidine--tRNA ligase (Leishmania infantum, UniProt A4I591); assay: Leishmania infantum Histidine tRNA synthetase (LdHisRS); format: functional
T3 sequence (A4I591 whole entry): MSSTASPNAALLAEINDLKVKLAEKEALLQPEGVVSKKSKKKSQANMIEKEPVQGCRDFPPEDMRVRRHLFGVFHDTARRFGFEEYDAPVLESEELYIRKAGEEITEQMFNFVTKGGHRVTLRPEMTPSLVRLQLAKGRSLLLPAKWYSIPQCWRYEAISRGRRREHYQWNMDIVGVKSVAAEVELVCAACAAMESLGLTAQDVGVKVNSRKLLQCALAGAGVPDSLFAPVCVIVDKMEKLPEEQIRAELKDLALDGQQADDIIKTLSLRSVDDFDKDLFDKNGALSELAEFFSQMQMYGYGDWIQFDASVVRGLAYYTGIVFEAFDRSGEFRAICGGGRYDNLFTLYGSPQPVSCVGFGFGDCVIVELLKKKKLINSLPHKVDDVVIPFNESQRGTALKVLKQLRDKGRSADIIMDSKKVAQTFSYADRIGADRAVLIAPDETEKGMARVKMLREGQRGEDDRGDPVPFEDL

[4] = microbe, parasite or virus in culture; conditions: Mycobacterium tuberculosis, 72 h, read-out: pIC50 (converted)
Lysine--tRNA ligase = Lysine--tRNA ligase (Plasmodium falciparum (isolate 3D7), UniProt Q8IDJ8); assay: Pf-KRS-1 (Lysyl-RNA Synthetase-1, KRS-1, cytosolic KRS) from Plasmodium falciparum. Inhibitor assay, 384 well plate, luminescence read.; format: functional
Sequence of Lysine--tRNA ligase (Q8IDJ8 whole entry): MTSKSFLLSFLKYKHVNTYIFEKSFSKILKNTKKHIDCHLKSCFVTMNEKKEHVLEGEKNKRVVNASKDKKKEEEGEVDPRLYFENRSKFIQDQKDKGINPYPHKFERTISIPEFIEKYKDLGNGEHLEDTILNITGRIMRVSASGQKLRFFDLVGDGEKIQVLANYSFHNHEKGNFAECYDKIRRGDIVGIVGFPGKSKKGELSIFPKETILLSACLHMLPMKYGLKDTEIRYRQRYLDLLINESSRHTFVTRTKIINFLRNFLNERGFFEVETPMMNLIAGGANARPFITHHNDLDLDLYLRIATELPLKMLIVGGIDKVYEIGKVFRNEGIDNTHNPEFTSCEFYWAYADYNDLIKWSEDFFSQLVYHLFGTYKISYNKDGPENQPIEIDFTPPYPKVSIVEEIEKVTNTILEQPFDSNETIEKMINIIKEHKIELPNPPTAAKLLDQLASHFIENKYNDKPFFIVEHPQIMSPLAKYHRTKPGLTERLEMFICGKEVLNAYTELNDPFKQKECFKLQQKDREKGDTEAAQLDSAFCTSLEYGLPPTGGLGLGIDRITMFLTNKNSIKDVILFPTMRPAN

[5] = microbe, parasite or virus in culture; conditions: Mycobacterium tuberculosis, 96 h, read-out: pIC50 (converted)
Histidine--tRNA ligase [6] = biological target: T4, Histidine--tRNA ligase (Trypanosoma cruzi (strain CL Brener), UniProt Q4DA54); assay: Trypanosoma cruzi histidyl tRNA synthetase (Tc-HisRS); format: functional
T4 sequence (Q4DA54 whole entry): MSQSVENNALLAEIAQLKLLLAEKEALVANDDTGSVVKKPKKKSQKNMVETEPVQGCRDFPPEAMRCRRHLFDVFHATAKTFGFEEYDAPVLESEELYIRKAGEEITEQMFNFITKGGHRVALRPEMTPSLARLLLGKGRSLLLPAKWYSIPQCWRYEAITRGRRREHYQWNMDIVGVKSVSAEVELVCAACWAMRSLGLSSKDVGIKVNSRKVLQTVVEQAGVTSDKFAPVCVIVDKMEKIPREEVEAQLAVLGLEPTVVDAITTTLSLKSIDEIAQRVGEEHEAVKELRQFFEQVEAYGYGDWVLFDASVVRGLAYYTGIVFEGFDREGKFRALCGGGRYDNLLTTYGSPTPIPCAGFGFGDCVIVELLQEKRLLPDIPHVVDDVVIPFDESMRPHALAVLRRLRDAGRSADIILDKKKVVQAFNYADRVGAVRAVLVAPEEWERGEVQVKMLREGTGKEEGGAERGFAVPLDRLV

[7] = biological target: Protein translocase subunit SecA (Escherichia coli (strain K12), UniProt P10408); assay: Assay to Identify E. coli SecA ATPase Inhibitors; format: functional
Sequence of Protein translocase subunit SecA (P10408 whole entry): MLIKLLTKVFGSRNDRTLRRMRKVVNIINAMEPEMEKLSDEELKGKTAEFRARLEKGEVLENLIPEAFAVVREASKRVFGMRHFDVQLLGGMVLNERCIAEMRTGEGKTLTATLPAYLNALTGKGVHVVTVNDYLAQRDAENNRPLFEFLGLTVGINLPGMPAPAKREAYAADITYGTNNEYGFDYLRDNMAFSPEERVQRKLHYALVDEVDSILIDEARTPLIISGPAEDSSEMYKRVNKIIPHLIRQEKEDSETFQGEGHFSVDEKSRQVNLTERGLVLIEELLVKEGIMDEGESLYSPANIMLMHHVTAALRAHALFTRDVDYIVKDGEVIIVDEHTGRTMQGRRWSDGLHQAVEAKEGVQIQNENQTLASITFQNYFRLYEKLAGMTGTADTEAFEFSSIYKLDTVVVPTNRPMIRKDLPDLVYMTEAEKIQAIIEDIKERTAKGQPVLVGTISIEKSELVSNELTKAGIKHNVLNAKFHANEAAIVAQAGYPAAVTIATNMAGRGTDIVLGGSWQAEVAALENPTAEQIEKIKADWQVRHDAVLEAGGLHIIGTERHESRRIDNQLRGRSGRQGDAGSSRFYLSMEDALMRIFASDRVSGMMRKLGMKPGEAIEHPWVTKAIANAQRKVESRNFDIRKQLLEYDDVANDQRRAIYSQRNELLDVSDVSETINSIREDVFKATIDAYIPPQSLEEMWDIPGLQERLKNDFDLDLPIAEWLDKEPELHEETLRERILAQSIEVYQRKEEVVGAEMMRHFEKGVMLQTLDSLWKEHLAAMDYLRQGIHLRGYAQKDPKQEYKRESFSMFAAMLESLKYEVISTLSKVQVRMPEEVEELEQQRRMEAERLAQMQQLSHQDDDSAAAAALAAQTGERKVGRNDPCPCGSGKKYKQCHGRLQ

[8] = To identify inhibition of the IFN signalling (Jak-Stat) pathway via expression of an eGFP reporter gene under the control of an IFN-stimulated response element (ISRE) containing MxA promoter.; format: functional, Homo sapiens
[9] = biological target: T5, Coenzyme A biosynthesis bifunctional protein CoaBC (Mycobacterium tuberculosis (strain ATCC 25618 / H37Rv), UniProt P9WNZ1); assay: Biomol Green assay for MtCoaBC inhibitor, OD650 read; format: functional
T5 sequence (P9WNZ1 whole entry): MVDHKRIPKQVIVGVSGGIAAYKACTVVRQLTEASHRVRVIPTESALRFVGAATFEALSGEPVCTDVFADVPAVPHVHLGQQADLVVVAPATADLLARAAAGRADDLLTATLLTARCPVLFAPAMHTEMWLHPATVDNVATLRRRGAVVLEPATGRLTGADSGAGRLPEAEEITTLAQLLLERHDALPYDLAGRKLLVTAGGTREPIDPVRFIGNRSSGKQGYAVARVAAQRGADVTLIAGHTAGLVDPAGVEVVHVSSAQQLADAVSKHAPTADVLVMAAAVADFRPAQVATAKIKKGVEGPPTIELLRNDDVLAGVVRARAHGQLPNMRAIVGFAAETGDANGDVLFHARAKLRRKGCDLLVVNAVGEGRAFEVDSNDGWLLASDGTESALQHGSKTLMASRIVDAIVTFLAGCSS

Cn1nc2c(cc1=O)CN(Cc1coc(-c3cccs3)n1)CC2
IC50 [1]: > 100 µM
IC50 [2]: 51.7 µM and 65.4 µM
IC50 (Histidine--tRNA ligase [3]): 13.1 µM and 11.1 µM

CCC(C)CNc1ccc2oc(COC)nc2c1 (configuration not stated)
IC50 [1]: > 100 µM
IC50 [2]: 36.7 µM and 47.3 µM
IC50 [4]: 49.1 µM
IC50 (Lysine--tRNA ligase): > 50.1 µM
IC50 (Histidine--tRNA ligase [3]): 11.1 µM and 14.1 µM
IC50 [5]: 34.4 µM

COc1cccc(C2CC(=O)Nc3nc(N)sc32)c1OC (configuration not stated)
IC50 [1]: 45.3 µM and 45 µM
IC50 [2]: 2.74 µM and 8.57 µM
IC50 (Histidine--tRNA ligase [6]): 3.98 µM and 3.84 µM
IC50 [4]: 42.2 µM
IC50 (Lysine--tRNA ligase): > 50.1 µM
IC50 [7]: 9.52 µM and 9.23 µM
IC50 (Histidine--tRNA ligase [3]): 1.21 µM and 1.37 µM
IC50 [5]: 44.8 µM

CCCN(C(=O)c1ccccn1)c1nc2c(s1)CCc1c-2cnn1C
IC50 [1]: > 100 µM
IC50 [2]: 27.3 µM and 35.3 µM
IC50 (Lysine--tRNA ligase): > 50.1 µM
IC50 (Histidine--tRNA ligase [3]): 18.7 µM and 14.4 µM

Cc1ccc(-c2nc(CN3CCc4nn(C)c(=O)cc4C3)co2)cc1
IC50 [1]: > 100 µM
IC50 [2]: > 100 µM and 52.7 µM
IC50 (Histidine--tRNA ligase [3]): 14.2 µM and 25.1 µM

Cn1cc(NS(=O)(=O)c2ccc(OC(F)(F)F)cc2)ccc1=O
IC50 [2]: 98.4 µM and 74.5 µM
IC50 (Lysine--tRNA ligase): > 50.1 µM
pIC50 [8]: 5.067 and 4.969
IC50 (Histidine--tRNA ligase [3]): 25.5 µM and 16.7 µM

Cn1cc(NC(=O)N2CCC(c3ccccc3)CC2)ccc1=O
IC50 [1]: > 100 µM
IC50 [2]: 13.6 µM and 15.7 µM
IC50 (Histidine--tRNA ligase [6]): 63 µM and 58.7 µM
IC50 (Lysine--tRNA ligase): > 50.1 µM
IC50 (Histidine--tRNA ligase [3]): 2.98 µM and 3.9 µM

CNc1nc2c(s1)C(c1c(F)cccc1Cl)CC(=O)N2 (configuration not stated)
IC50 [2]: 46.5 µM and 15.4 µM
IC50 (Histidine--tRNA ligase [6]): 20.4 µM and 19.2 µM
IC50 (Lysine--tRNA ligase): > 50.1 µM
IC50 [7]: 20.4 µM and 24.2 µM
IC50 (Histidine--tRNA ligase [3]): 7.84 µM and 5.67 µM

Cn1nc2c(cc1=O)CN(Cc1nnc(C3CC3)o1)CC2
IC50 [1]: > 100 µM
IC50 [2]: 77.5 µM and > 100 µM
IC50 [9]: > 30.2 µM
IC50 (Lysine--tRNA ligase): > 50.1 µM
IC50 (Histidine--tRNA ligase [3]): 17.5 µM and 14.6 µM

COCc1nc2cc(NCc3ccncc3)ccc2o1
IC50 [1]: 50.3 µM and 60.4 µM
IC50 [2]: 11.6 µM and 26.4 µM
IC50 [9]: > 50.1 µM
IC50 (Histidine--tRNA ligase [3]): 4.22 µM and 3.13 µM
